Experimental findings from US9850383B2, “Uncharged pyrenyloxy sulfonamide dyes for conjugation with biomolecules” (Gene Tools, LLC, priority 2016, dated 2017) are described below.

Data set [1] can be described thus: Molar extinction coefficient. The format is physicochemical. The following applies: at λ410 nm. The text has this:
(§1) The core structure of the improved, reactive, hydrophilic, uncharged fluorophores is a new class of pyrenyloxy sulfonamide compounds. […] The novelty of this invention involves the substantial improvement of the properties of Cascade Blue, a currently available blue-fluorescent dye. The high polarity of anionic sulfonate of Cascade Blue results in the membrane-impermeability which can only be used extracellularly, a major disadvantage for many desirable applications. […] And the high aqueous solubility of the pyrenyloxy sulfonamide is useful for biological and physiological application, allowing staining the cell surface which is negatively charged, and even more useful to enter the cell for intracellular detection. In addition, the Stokes shift of Cascade Blue is undesirably small (ca. 20 nm, FIG. 2). […] The Stokes shift of the compounds of this invention is a much more practical 44 nm (FIG. 1), a significant improvement in its utility as a tracer for biological applications. The molar extinction coefficient of the structure of the invention is slightly higher (3.1×10^4 cm^−1 M^−1 at λ423 nm) than that of Cascade Blue (2.9×10^4 cm^−1 M^−1 at λ410 nm), an additional advantage for increased sensitivity. […] This resistance to photobleaching greatly enhances the utility of the dye for quantitative measurements and permits extended illumination time.

Data set [2] is described as follows: Excitation and emission spectrum (fluorescence). The format is physicochemical.
From the text: FIG. 1. Excitation and emission spectrum of pyrenyloxy sulfonamide (Compound 4a)
FIG. 2. Excitation and emission spectrum of Cascade Blue
FIG. 3. Excitation and emission spectrum of fluorescein
as §1, with “sensitivity. Photostability of the dye (compound 6 in FIG. 6) was tested under the light exposure. The scans were overlaid up to 60 mins with 15 min interval.” for “sensitivity.”
Obvious is the spectra region shorter than 500 nm which is particularly valuable to get away from interference where green fluorescent protein is present or, to carry out the applications requiring multiple dyes such as flow cytometry, DNA sequencing and multiparameter microscopy. […] This special feature increases the sensitivity of the fluorescence techniques where the emission signal can be maximized against the low background.

In data set [1], Cascade Blue [reference compound] yielded a molar extinction coefficient of 29000 cm⁻¹ M⁻¹. Moreover, the Stokes shift entry in data set [2] is given as “ca. 20 nm”.

As to `O=S(=O)(c1cc(OCCCO)c2ccc3c(S(=O)(=O)N4CCOCC4)cc(S(=O)(=O)N4CCOCC4)c4ccc1c2c34)N1CCOCC1` [Compound 4a, 8-(3′-hydroxypropyloxy)pyren-tris(morpholino)-1,3,6-trisulfonamide], in data set [2], the Stokes shift entry was “ca. 44 nm”, the peak of emission stood at 465 nm and the peak of excitation came to 421 nm.
